The values that follow come from patent US9333195B2 (priority 1999, dated 2016).

Counter-ions that a name gives are not always drawn.

The term IC50 denotes the point on the concentration scale where inhibition reaches its midpoint.

The target of one assay is human muscarinic receptors Hm3 (Homo sapiens (Human), UniProt P20309). Description: biochemical.
Conditions: not given
Type of assay: binding.
For the compound `O=C(O[C@H]1C[N+]2(CC=Cc3ccccc3)CCC1CC2)C(O)(c1ccccc1)c1ccco1` (mixture of isomers) [Example 17, 3(R)-(2-Furan-2-yl-2-hydroxy-2-phenylacetoxy)-1-(3-phenylallyl)-1-azoniabicyclo[2.2.2]octane; bromide], the IC50 amounted to 14 nM.

The same assay, now with this note: read-out: BINDING TO RECEPTOR M3 (IC50 nM).
For `O=C(O[C@H]1C[N+]2(CCCOc3ccccc3)CCC1CC2)C(c1ccccc1)c1ccccc1` [Example 1, 3 (R)-Diphenylacetoxy-1-(3-phenoxypropyl)-1-azoniabicyclo[2.2. 2]octane; bromide], the half-maximal inhibitory concentration (IC50) stood at 31 nM.

As for `CC(C(=O)O[C@H]1C[N+]2(CCCOc3ccccc3)CCC1CC2)(c1ccccc1)c1ccccc1` [Example 7, 3(R)-(2,2-Diphenylpropionyloxy)-1-(3-phenoxypropyl)-1-azoniabicyclo[2.2.2]octane; bromide], the half-maximal inhibitory concentration (IC50) is 22 nM.

As for `O=C(O[C@H]1C[N+]2(CCCOc3ccccc3)CCC1CC2)C(O)(c1ccccc1)c1cccs1` (stereo partly drawn) [Example 8, 3(R)-(2-Hydroxy-2-phenyl-2-thien-2-ylacetoxy)-1-(3-phenoxypropyl)-1-azoniabicyclo[2.2.2]octane; bromide], the IC50 was found to be 4.8 nM.

Consider `O=C(O[C@H]1C[N+]2(CCOc3ccccc3)CCC1CC2)C(O)(c1ccccc1)c1ccco1` (stereo partly drawn) [Example 18, 3(R)-(2-Furan-2-yl-2-hydroxy-2-phenylacetoxy)-1-(2-phenoxyethyl)-1-azoniabicyclo[2.2.2]octane; bromide], for which the 50% inhibitory concentration (IC50) came to 6.6 nM.

For the compound `O=C(O[C@H]1C[N+]2(CCCOc3ccccc3)CCC1CC2)C(O)(c1ccccc1)c1ccco1` (stereo partly drawn) [Example 20, 3(R)-(2-Furan-2-yl-2-hydroxy-2-phenylacetoxy)-1-(3-phenoxypropyl)-1-azoniabicyclo[2.2.2]octane; bromide], the IC50 turned out to be 6.8 nM.

With `O=C(O[C@H]1C[N+]2(CCCOc3ccccc3)CCC1CC2)C(c1cccs1)c1cccs1` [Example 35, 3(R)-(2,2-Dithien-2-ylacetoxy)-1-(3-phenoxypropyl)-1-azoniabicyclo[2.2.2]octane; bromide], the 50% inhibitory concentration (IC50) was found to be 13 nM.

`O=C(O[C@H]1C[N+]2(CCCCc3ccccc3)CCC1CC2)C(O)(c1cccs1)c1cccs1` [Example 39, 3(R)-(2-Hydroxy-2,2-dithien-2-ylacetoxy)-1-(4-phenylbutyl)-1-azoniabicyclo[2.2.2]octane; bromide]: the IC50 came to 3.8 nM.

`O=C(O[C@H]1C[N+]2(CCCOc3ccc(F)cc3)CCC1CC2)C(O)(c1cccs1)c1cccs1` [Example 53, 1-[3-(4-Fluorophenoxy)propyl]-3(R)-(2-hydroxy-2,2-dithien-2-ylacetoxy)-1-azoniabicyclo[2.2.2]octane; chloride]: the IC50 was determined as 5.6 nM.

Turning to `O=C(O[C@H]1C[N+]2(CCCOc3ccccc3O)CCC1CC2)C(O)(c1cccs1)c1cccs1` [Example 71, 3(R)-(2-Hydroxy-2,2-dithien-2-ylacetoxy)-1-[3-(2-hydroxyphenoxy)propyl]-1-azoniabicyclo[2.2.2]octane; trifluoroacetate], the 50% inhibitory concentration (IC50) was determined as 8.2 nM.

`O=C(O[C@H]1C[N+]2(CCCn3cccc3)CCC1CC2)C(O)(c1cccs1)c1cccs1` [Example 74, 3(R)-(2-Hydroxy-2,2-dithien-2-ylacetoxy)-1-(3-pyrrol-1-ylpropyl)-1-azoniabicyclo[2.2.2]octane; trifluoroacetate]: the half-maximal inhibitory concentration (IC50) was 16 nM.

With `O=C(O[C@H]1C[N+]2(CCCc3cccs3)CCC1CC2)C(O)(c1cccs1)c1cccs1` [Example 78, 3(R)-(2-Hydroxy-2,2-dithien-2-ylacetoxy)-1-(3-thien-2-ylpropyl)-1-azoniabicyclo[2.2.2]octane; bromide], the IC50 stood at 5 nM.

On to `O=C(O[C@H]1C[N+]2(CCOCc3ccccc3)CCC1CC2)C(O)(c1cccs1)c1cccs1` [Example 84, 1-(2-Benzyloxyethyl)-3(R)-(2-hydroxy-2,2-dithien-2-ylacetoxy)-1-azoniabicyclo[2.2.2]octane; trifluoroacetate], for which the half-inhibitory concentration (IC50) is 9.9 nM.

On to `O=C(O[C@H]1C[N+]2(CCCOc3ccccc3)CCC1CC2)C(O)(c1ccsc1)c1ccsc1` [Example 89, 3(R)-(2-Hydroxy-2,2-dithien-3-ylacetoxy)-1-(3-phenoxypropyl)-1-azoniabicyclo[2.2.2]octane; bromide], for which the 50% inhibitory concentration (IC50) worked out at 5.4 nM.

For `CC1(C(=O)O[C@H]2C[N+]3(CC=Cc4ccccc4)CCC2CC3)c2ccccc2-c2ccccc21` [Example 114, 3(R)-(9-Methyl-9[H]-fluorene-9-carbonyloxy)-1-(3-phenylallyl)-1-azoniabicyclo[2.2.2]octane; bromide], the half-maximal inhibitory concentration (IC50) stood at 14 nM.

Take `CC1(C(=O)O[C@H]2C[N+]3(CCCOc4ccccc4)CCC2CC3)c2ccccc2-c2ccccc21` [Example 116, 3(R)-(9-Methyl-9[H]-fluorene-9-carbonyloxy)-1-(3-phenoxypropyl)-1-azoniabicyclo[2.2.2]octane; bromide]: the IC50 turned out to be 23 nM.

Consider `O=C(O[C@H]1C[N+]2(CCCc3cccs3)CCC1CC2)C1(O)c2ccccc2Oc2ccccc21` [Example 138, 3(R)-(9-Hydroxy-9H-xanthene-9-carbonyloxy)-1-(3-thien-2-ylpropyl)-1-azoniabicyclo[2.2.2]octane; bromide], for which the 50% inhibitory concentration (IC50) was determined as 19 nM.
